Results reported in PubChem BioAssay (NCI).
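The concentration for 50% growth inhibition is given as GI50. TGI: concentration producing complete growth inhibition.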

What was measured:
Assay in all cases: inhibition of tumour cell growth, NCI panel, 384-well format
786-0 renal = system: 786-0 renal
A498 renal = system: A498 renal
A549 NSCLC = system: A549 NSCLC
ACHN renal = system: ACHN renal
BT-549 breast = system: BT-549 breast
CAKI-1 renal = system: CAKI-1 renal
CCRF-CEM leukemia = system: CCRF-CEM leukemia
COLO 205 colon = system: COLO 205 colon
DU-145 prostate = system: DU-145 prostate
EKVX NSCLC = system: EKVX NSCLC
HCC-2998 colon = system: HCC-2998 colon
HCT-116 colon = system: HCT-116 colon
HCT-15 colon = system: HCT-15 colon
HL-60(TB) leukemia = system: HL-60(TB) leukemia
HOP-62 NSCLC = system: HOP-62 NSCLC
HOP-92 NSCLC = system: HOP-92 NSCLC
HS 578T breast = system: HS 578T breast
HT29 colon = system: HT29 colon
IGROV1 ovarian = system: IGROV1 ovarian
K-562 leukemia = system: K-562 leukemia
KM12 colon = system: KM12 colon
LOX IMVI melanoma = system: LOX IMVI melanoma
M14 melanoma = system: M14 melanoma
MALME-3M melanoma = system: MALME-3M melanoma
MCF7 breast = system: MCF7 breast
MDA-MB-231 breast = system: MDA-MB-231 breast
MDA-MB-435 melanoma = system: MDA-MB-435 melanoma
MDA-MB-468 breast = system: MDA-MB-468 breast
MOLT-4 leukemia = system: MOLT-4 leukemia
NCI-H226 lung = system: NCI-H226 lung
NCI-H23 lung = system: NCI-H23 lung
NCI-H322M lung = system: NCI-H322M lung
NCI-H460 NSCLC = system: NCI-H460 NSCLC
NCI-H522 lung = system: NCI-H522 lung
NCI/ADR-RES ovarian = system: NCI/ADR-RES ovarian
OVCAR-3 ovarian = system: OVCAR-3 ovarian
OVCAR-4 ovarian = system: OVCAR-4 ovarian
OVCAR-8 ovarian = system: OVCAR-8 ovarian
PC-3 prostate = system: PC-3 prostate
RPMI-8226 leukemia = system: RPMI-8226 leukemia
RXF 393 renal = system: RXF 393 renal
SF-268 CNS = system: SF-268 CNS
SF-295 CNS = system: SF-295 CNS
SF-539 CNS = system: SF-539 CNS
SK-MEL-28 melanoma = system: SK-MEL-28 melanoma
SK-MEL-5 melanoma = system: SK-MEL-5 melanoma
SK-OV-3 ovarian = system: SK-OV-3 ovarian
SN12C renal = system: SN12C renal
SNB-19 CNS = system: SNB-19 CNS
SNB-75 CNS = system: SNB-75 CNS
SR leukemia = system: SR leukemia
SW-620 colon = system: SW-620 colon
T-47D breast = system: T-47D breast
TK-10 renal = system: TK-10 renal
U251 glioblastoma = system: U251 glioblastoma
UACC-257 melanoma = system: UACC-257 melanoma
UACC-62 melanoma = system: UACC-62 melanoma
UO-31 renal = system: UO-31 renal

In the case of Cc1cc(O)c(-c2ccc([C@@H](C)CN(C)C)cc2)c2c1[nH]c(=O)c1sccc12, the GI50 ([…]-0 renal) is reported as 50 nM, the TGI (786-0 renal) is reported as 193 nM and the GI50 (A498 renal) is reported as 160 nM. It also gave a TGI (A498 renal) of 319 nM, a GI50 (A549 NSCLC) of 225 nM and a TGI (A549 NSCLC) of 482 nM. It also gave a GI50 (ACHN renal) of 357 nM, a TGI (ACHN renal) of 1240 nM and a GI50 (BT-549 breast) of 192 nM. The TGI (BT-549 breast) was 451 nM, the GI50 (CAKI-1 renal) was 292 nM and the TGI (CAKI-1 renal) was 996 nM. The GI50 (CCRF-CEM leukemia) was 199 nM, the TGI (CCRF-CEM leukemia) was 399 nM and the GI50 (COLO 205 colon) was 1990 nM. For the same molecule, the TGI (COLO 205 colon) was 4050 nM, the GI50 (DU-145 prostate) was 279 nM and the TGI (DU-145 prostate) was 706 nM. For the same molecule, the GI50 (EKVX NSCLC) was 451 nM, the TGI (EKVX NSCLC) was 1500 nM and the GI50 (HCC-2998 colon) was 197 nM. It also gave a TGI (HCC-2998 colon) of 467 nM, a GI50 (HCT-116 colon) of 200 nM and a TGI (HCT-116 colon) of 383 nM. For the same molecule, the GI50 (HCT-15 colon) was 378 nM, the TGI (HCT-15 colon) was 1390 nM and the GI50 (HL-60(TB) leukemia) was 19.7 nM. It also gave a TGI (HL-60(TB) leukemia) of 37.5 nM, a GI50 (HOP-62 NSCLC) of 206 nM and a TGI (HOP-62 NSCLC) of 401 nM. For the same molecule, the GI50 (HOP-92 NSCLC) was 357 nM, the TGI (HOP-92 NSCLC) was 2120 nM and the GI50 (HS 578T breast) was 129 nM. It also gave a TGI (HS 578T breast) of 289 nM, a GI50 (HT29 colon) of 1780 nM and a TGI (HT29 colon) of 3270 nM. For the same molecule, the GI50 (IGROV1 ovarian) was 362 nM, the TGI (IGROV1 ovarian) was 1270 nM and the GI50 (K-562 leukemia) was 295 nM. For the same molecule, the TGI (K-562 leukemia) was 746 nM, the GI50 (KM12 colon) was 286 nM and the TGI (KM12 colon) was 850 nM. It also gave a GI50 (LOX IMVI melanoma) of 253 nM, a TGI (LOX IMVI melanoma) of 580 nM and a GI50 (M14 melanoma) of 413 nM. The TGI (M14 melanoma) was 1250 nM, the GI50 (MALME-3M melanoma) was 1000 nM and the TGI (MALME-3M melanoma) was 2190 nM. It also gave a GI50 (MCF7 breast) of 63.6 nM, a TGI (MCF7 breast) of 217 nM and a GI50 (MDA-MB-231 breast) of 265 nM. The TGI (MDA-MB-231 breast) was 682 nM, the GI50 (MDA-MB-435 melanoma) was 444 nM and the TGI (MDA-MB-435 melanoma) was 1430 nM. For the same molecule, the GI50 (MDA-MB-468 breast) was 27.8 nM, the TGI (MDA-MB-468 breast) was 67.1 nM and the GI50 (MOLT-4 leukemia) was 156 nM. For the same molecule, the TGI (MOLT-4 leukemia) was 295 nM, the GI50 (NCI-H226 lung) was 285 nM and the TGI (NCI-H226 lung) was 662 nM. It also gave a GI50 (NCI-H23 lung) of 212 nM, a TGI (NCI-H23 lung) of 446 nM and a GI50 (NCI-H322M lung) of 411 nM. It also gave a TGI (NCI-H322M lung) of 1210 nM, a GI50 (NCI-H460 NSCLC) of 186 nM and a TGI (NCI-H460 NSCLC) of 341 nM. The GI50 (NCI-H522 lung) was 180 nM, the TGI (NCI-H522 lung) was 350 nM and the GI50 (NCI/ADR-RES ovarian) was 2060 nM. For the same molecule, the TGI (NCI/ADR-RES ovarian) was 4650 nM, the GI50 (OVCAR-3 ovarian) was 189 nM and the TGI (OVCAR-3 ovarian) was 381 nM. For the same molecule, the GI50 (OVCAR-4 ovarian) was 199 nM, the TGI (OVCAR-4 ovarian) was 400 nM and the GI50 (OVCAR-8 ovarian) was 223 nM. For the same molecule, the TGI (OVCAR-8 ovarian) was 447 nM, the GI50 (PC-3 prostate) was 286 nM and the TGI (PC-3 prostate) was 757 nM. For the same molecule, the GI50 (RPMI-8226 leukemia) was 36.8 nM, the TGI (RPMI-8226 leukemia) was 108 nM and the GI50 (RXF 393 renal) was 14.6 nM. It also gave a TGI (RXF 393 renal) of 31.7 nM, a GI50 (SF-268 CNS) of 338 nM and a TGI (SF-268 CNS) of 1420 nM. The GI50 (SF-295 CNS) was 1810 nM, the TGI (SF-295 CNS) was 3680 nM and the GI50 (SF-539 CNS) was 133 nM. It also gave a TGI (SF-539 CNS) of 369 nM, a GI50 (SK-MEL-28 melanoma) of 284 nM and a TGI (SK-MEL-28 melanoma) of 1610 nM. The GI50 (SK-MEL-5 melanoma) was 233 nM, the TGI (SK-MEL-5 melanoma) was 547 nM and the GI50 (SK-OV-3 ovarian) was 171 nM. The TGI (SK-OV-3 ovarian) was 410 nM, the GI50 (SN12C renal) was 224 nM and the TGI (SN12C renal) was 571 nM. The GI50 (SNB-19 CNS) was 335 nM, the TGI (SNB-19 CNS) was 1110 nM and the GI50 (SNB-75 CNS) was 159 nM. It also gave a TGI (SNB-75 CNS) of 753 nM, a GI50 (SR leukemia) of 75.7 nM and a TGI (SR leukemia) of 179 nM. It also gave a GI50 (SW-620 colon) of 443 nM, a TGI (SW-620 colon) of 1260 nM and a GI50 (T-47D breast) of 1200 nM. For the same molecule, the TGI (T-47D breast) was 5800 nM, the GI50 (TK-10 renal) was 265 nM and the TGI (TK-10 renal) was 713 nM. For the same molecule, the GI50 (U251 glioblastoma) was 173 nM, the TGI (U251 glioblastoma) was 1100 nM and the GI50 (UACC-257 melanoma) was 831 nM. The TGI (UACC-257 melanoma) was 2090 nM, the GI50 (UACC-62 melanoma) was 283 nM and the TGI (UACC-62 melanoma) was 888 nM. It also gave a GI50 (UO-31 renal) of 266 nM and a TGI (UO-31 renal) of 663 nM.
